Data set [1] concerns liver cells. In words: In vivo LNP delivery of firefly luciferase mRNA to liver, bioluminescent imaging (BLI). On the set-up: species or system BALB/C mice. The conditions noted are these: 0.5 mg/kg fLuciferase mRNA i.v., BLI at 4 hr. The method, then:
Adult female BALB/C mice (n=3/group) were intravenously administered 0.5 mg/kg of 5′-CleanCap-fLuciferase mRNA (TriLink Biotech) formulated with LNP compositions as described in Example 66. One group of mice was treated with vehicle (PBS, Thermo Fisher Scientific, USA) as a negative control.
(§1) The location and extent of luciferase expression in treated and control mice were determined at 4 hr by bioluminescent imaging (BLI) of anesthetized mice using an IVIS Lumina in vivo imaging system (Perkin Elmer) according to the manufacturer's instructions. Briefly, mice were anesthetized using isoflurane in oxygen, and placed supine on a heated stage. Mice were then administered D-luciferin (Perkin-Elmer #122799) IP, and BLI was performed.
Adult female BALB/C mice (n=3/group) were intravenously administered 0.5 mg/kg of 5′-CleanCap-fLuciferase mRNA (TriLink Biotech) formulated with the LNP compositions shown in Table 25. One group of mice was treated with vehicle (PBS, Thermo Fisher Scientific, USA) as a negative control. […]

In data set [2] the test system is liver cells. The experiment in a line: In vivo LNP delivery of nanoplasmid CMV-firefly luciferase DNA to liver of juvenile mice, BLI. The conditions noted are these: juvenile female BALB/C mice age 14 days; 0.25 mg/kg nanoplasmid CMV-firefly luciferase retroorbital i.v.; BLI at 4 hr. As to the method:
Juvenile female BALB/C mice of age 14 days (n=4/group) were retroorbitally intravenously administered 0.25 mg/kg of nanoplasmid CMV-firefly luciferase (Nature Technology Corp) formulated with LNP compositions as described in Example 66. One group of mice was treated with vehicle (PBS, Thermo Fisher Scientific, USA) as a negative control.
as §1

The test system of data set [3] is liver cells. In words: In vivo LNP delivery of firefly luciferase DNA to liver of adult mice, BLI. On the set-up: species or system BALB/C mice. To be noted: BLI at 24 hr; for Mean Liver Luciferase Flux (p/s): AM-TTR firefly luciferase nanoplasmid DNA 0.5 mg/kg, adult BALB/C, n=3. The method, then:
as §1
The location and extent of luciferase expression in treated and control mice were determined at 4 hr and 48 hr by bioluminescent imaging (BLI) of anesthetized mice using an IVIS Lumina in vivo imaging system (Perkin Elmer) according to the manufacturer's instructions. Briefly, mice were anesthetized using isoflurane in oxygen, and placed supine on a heated stage. Mice were then administered D-luciferin (Perkin-Elmer #122799) IP, and BLI was performed.
The location and extent of luciferase expression in treated and control mice were determined at 24 hr by bioluminescent imaging (BLI) of anesthetized mice using an IVIS Lumina in vivo imaging system (Perkin Elmer) according to the manufacturer's instructions. Briefly, mice were anesthetized using isoflurane in oxygen, and placed supine on a heated stage. Mice were then administered D-luciferin (Perkin-Elmer #122799) IP, and BLI was performed.
One group of mice was treated with an LNP composition of the present disclosure comprising Compound No. 30 as a positive control.
The location and extent of luciferase expression in treated and control mice were determined at 4 hr for RNA delivery, or 48 hr for DNA delivery, by bioluminescent imaging (BLI) of anesthetized mice using an IVIS Lumina in vivo imaging system (Perkin Elmer) according to the manufacturer's instructions. Briefly, mice were anesthetized using isoflurane in oxygen, and placed supine on a heated stage. Mice were then administered D-luciferin (Perkin-Elmer #122799) IP, and BLI was performed.

A short description of data set [4]: Physical characteristics of LNPs (particle size, PDI). It is filed as physicochemical.
Data set [5] can be described thus: Body weight change of mice after LNP administration. It is filed as in vivo, BALB/C mice. As to the method:
The mice above were also monitored for changes in body weight after LNP delivery. Mice were manually weighed on a scale before LNP dosage and then weighed 24 hrs after administration of 0.5 mg/kg of LNP article encapsulating Cleancap firefly luciferase mRNA. The average of weight change n=3 is reported below.
In addition, the body weight of mice treated with the LNP compositions of Table 25 was assessed prior to intravenous administration and twenty-four hours post-administration and the body weights at baseline and post-treatment were compared. The average percentage of body weight change for each group of mice treated with each LNP composition of Table 25 is shown in Table 28. […]

Setting [6] is: LNP with Fluc DNA, compound/DOPE/Cholesterol/DMG-PEG2000 38/50/10.0/2.0, Lipid:DNA 45:1 (w/w).
Where [7] appears, read: LNP with Fluc mRNA, compound/DOPE/Cholesterol/DMG-PEG2000 41.44/45.85/10/2.7, Lipid:RNA 40:1 (w/w).

As to `CC(C)CCCC1CCC(C(=O)OCCOC(=O)CCN(CCCN(C)CCCN(CCC(=O)OCCOC(=O)C2CCC(CCCC(C)C)CC2)CCC(=O)OCCOC(=O)C2CCC(CCCC(C)C)CC2)CCC(=O)OCCOC(=O)C2CCC(CCCC(C)C)CC2)CC1` (stereo not shown) [Compound 30], the “Mean Liver Luciferase Flux (p/s)” value was 1.28e11 p/s in data set [1] (LNP compositions of Table 25, adult female BALB/C, n=3); 31400000 p/s in data set [3] (LNP (Table 47) with Compound No. 30 prepared according to Alternative General Procedure K); 29600000 p/s in data set [3] (LNP (Table 47) with Compound No. 30 prepared according to Alternative General Procedure L); 21266666.67 p/s in data set [3] (LNP (Table 47) with Compound No. 30 prepared according to Example 21). In addition, the “Ave flux (p/s) n = 3” value in data set [1] (adult female BALB/C mice, LNP as in Example 66) turned out to be 3.26E+10 p/s. In addition, in data set [2], the “Ave flux (p/s) n = 4” value is on record as 7332500000 p/s. Also, the “luciferase expression by BLI after DNA LNP, liver specific promoter (in words)” value in data set [3] (0.5 mg/kg total DNA, nanoplasmid firefly luciferase under AM-TTR promoter, adult BALB/C mice) is given as “successfully delivered DNA to liver cells”. In addition, in data set [4] (setting [6]), the “PDI DNA” value was found to be 0.167. Moreover, in data set [4] (setting [6]), the “Particle Size (nm) DNA” value was 276.9 nm. The “PDI RNA” value in data set [4] (setting [7]) was determined as 0.170. Further, in data set [4] (setting [7]), the “Particle Size (nm) RNA” value was 326.7 nm. Besides, the “Ave weight change (gram) n = 3” value in data set [5] (24 hrs after 0.5 mg/kg LNP encapsulating firefly luciferase mRNA, adult female BALB/C mice) was −5.67 gram. Also, the “% Body Weight Change 24 hr” value in data set [5] (LNP compositions of Table 25, 0.5 mg/kg fLuciferase mRNA i.v., 24 hr post-administration vs baseline) is reported as −2.8%.
